Results taken from US12612465B2, “Formulations comprising PCSK9 specific monoclonal antibodies” (Amgen Inc., priority 2012, dated 2026).

Target: PCSK9 (Homo sapiens, UniProt Q8NBP7)
Assay: 12 week monotherapy dose-ranging study, Framingham risk 10% or less (Example 24)
Type: in vivo
Set-up: endogenous in cells; host or cells: human subjects, in vivo
Method: Ezetimibe was not blinded. The end-of-study visit and the last estimation of lipids was at week 12 for subjects on Q4W IP schedule or on ezetimibe and week 14 for subjects on Q2W IP schedule.
Males and females, ≥18 to ≤75 years of age, were eligible for this study. Fasting LDL-C was ≥100 mg/dL (2.6 mmol/L) and ≤190 mg/dL (4.9 mmol/L) and fasting triglycerides ≤400 mg/dL (4.5 mmol/L) by central laboratory at screening.
The primary endpoint was the percent change from baseline in LDL-C at week 12. Secondary endpoints included percent changes in apolipoprotein B (ApoB), lipoprotein (a) (Lp(a)), and in the ratio of total cholesterol to high-density lipoprotein (HDL)-C. Tolerability and safety were also evaluated.

Chain of PCSK9 (Q8NBP7 153-692): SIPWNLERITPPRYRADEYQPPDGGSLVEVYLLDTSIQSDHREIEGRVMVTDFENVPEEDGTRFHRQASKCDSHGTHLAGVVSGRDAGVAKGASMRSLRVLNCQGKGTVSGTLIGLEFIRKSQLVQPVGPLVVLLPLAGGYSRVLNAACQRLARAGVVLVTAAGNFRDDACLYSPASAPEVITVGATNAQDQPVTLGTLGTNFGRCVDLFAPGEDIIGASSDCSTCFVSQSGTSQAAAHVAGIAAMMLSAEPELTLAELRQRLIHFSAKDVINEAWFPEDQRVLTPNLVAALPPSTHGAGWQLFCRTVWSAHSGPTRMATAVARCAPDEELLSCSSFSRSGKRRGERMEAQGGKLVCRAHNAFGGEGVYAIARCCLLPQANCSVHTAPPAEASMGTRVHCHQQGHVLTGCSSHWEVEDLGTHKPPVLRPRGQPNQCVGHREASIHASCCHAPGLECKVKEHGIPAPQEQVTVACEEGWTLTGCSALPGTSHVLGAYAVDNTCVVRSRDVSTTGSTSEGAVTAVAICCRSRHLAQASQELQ

Least squares mean percent change from baseline in LDL-C, week 12 (Ezetimibe QD (N = 45)): −14.26% | percent change from baseline in LDL-C (ezetimibe QD PO, week 12, final data): 14%
Structure (SMILES): O=C1[C@H](CC[C@H](O)c2ccc(F)cc2)[C@@H](c2ccc(O)cc2)N1c1ccc(F)cc1 [Ezetimibe, ezetimibe, reference compound]
